Test results as given in patent US9193736B2, “PDE 10a inhibitors for the treatment of type II diabetes” (Janssen Pharmaceutica, NV, priority 2013, dated 2015).
pIC50: −log10 of the molar value. Structures can show the parent of a compound that is named as a salt.

Legend:
[1] = PDE10a perfused brain permeability study: plasma concentrations at 30 and 120 min, brain concentration at 120 min, brain/plasma ratio; conditions: for concentration at 2 h / Kp at 2 h: male, Sprague-Dawley, rat; for Kp at 2 h: brain/plasma
Protocol: PDE10a-Brain Permeability Assay
A. PDE10a-Perfused Brain Permeability Study Protocol
Drug administration by oral gavage, subcutaneous injection or intravenous was carried out using male Sprague Dawley rats under IACUC protocol (SH-MET3010). Male Sprague Dawley rats (Charles River) ˜300-350 g were maintained on a 4% standard rodent diet (Test Diet 5001). They are allowed ad libitum access to water and food. Room temperature was maintained at 64° F. and humidity at 30-70%.
Three animals per compound were provided a dose of 2 mg/mL in 20% HpbCD/Tris pH 8 by tail i.v. or 30 mpk p.o. or s.c. in 20% HpbCD/Tris pH 8, with PDE10a antagonists. A first blood sample was collected at 30 min via retro-orbital sinus (anesthetic by 70% CO2/30% O2) into heparinzed plasma separator tubes. The blood was centrifuged and 100 μL plasma was placed into a 96 well plate and saved on dry ice.
After the 120 min, the final blood sample was collected via retro-orbital sinus under anesthesia by IP 0.5 cc injection of a 4/1 mixture of Ketaset: AnaSed [(prepared 10 mL Ketaset (100 mg/mL Ketamine)+2.5 mL AnaSed (20 mg/mL Xylazine)]. The rats were then perfused with 400 mL heparinized saline (10,000 units/L) through the left ventricle of the heart; the brains were then removed (not including the medulla), weighed and homogenized in PBS (4 mL/g tissue). The samples were stored at −80° C. and submitted for chemical analysis of blood and brain concentrations. Endpoints of sample analysis consists of the plasma concentrations at 30 and 120 min, plus brain concentrations at 120 min.

[2] = target: Human recombinant PDE10A2 (Homo sapiens (Human), UniProt Q9Y233); assay: In vitro hPDE10a: human recombinant PDE10A2 scintillation proximity assay, IC50; format: biochemical; conditions: human recombinant PDE10A2, SPA, 60 nM cAMP; read-out: hPDE10a2 IC50
Sequence of Human recombinant PDE10A2 (Q9Y233 267-1055): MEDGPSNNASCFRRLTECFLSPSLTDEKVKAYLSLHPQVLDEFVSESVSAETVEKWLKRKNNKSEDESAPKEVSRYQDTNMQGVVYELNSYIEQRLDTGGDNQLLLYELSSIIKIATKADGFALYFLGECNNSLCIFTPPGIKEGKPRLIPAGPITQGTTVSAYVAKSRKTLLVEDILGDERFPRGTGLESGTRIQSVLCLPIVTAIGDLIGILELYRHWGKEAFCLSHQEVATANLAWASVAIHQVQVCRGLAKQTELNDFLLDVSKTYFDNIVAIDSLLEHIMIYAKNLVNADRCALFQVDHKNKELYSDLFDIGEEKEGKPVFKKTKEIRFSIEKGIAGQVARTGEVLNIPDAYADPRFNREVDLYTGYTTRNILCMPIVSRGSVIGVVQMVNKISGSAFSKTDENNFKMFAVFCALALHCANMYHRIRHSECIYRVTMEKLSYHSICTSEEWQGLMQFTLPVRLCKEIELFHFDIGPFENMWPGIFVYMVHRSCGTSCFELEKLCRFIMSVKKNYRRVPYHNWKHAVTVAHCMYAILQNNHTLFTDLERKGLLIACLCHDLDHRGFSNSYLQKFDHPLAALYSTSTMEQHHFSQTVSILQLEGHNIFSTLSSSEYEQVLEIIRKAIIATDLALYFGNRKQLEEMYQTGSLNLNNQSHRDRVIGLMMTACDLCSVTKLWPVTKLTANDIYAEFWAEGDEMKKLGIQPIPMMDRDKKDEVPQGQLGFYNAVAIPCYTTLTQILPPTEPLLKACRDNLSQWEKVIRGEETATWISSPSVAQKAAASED
Procedure, shortened: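 Purified recombinant human PDE10A2 (Ni-sepharose) was assayed by SPA, counting [3H]-AMP product captured on yttrium silicate beads added in zinc sulphate stop solution. Inhibition was expressed as % of activity without compound, with a no-enzyme low control. Repeat data points were aggregated.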

[3] = target: Rat recombinant PDE10a (rPDE10a) (Rattus norvegicus (Rat), UniProt Q9QYJ6); assay: In vitro assay PDE10a: rat recombinant PDE10a SPA with 3H-cAMP substrate, IC50; format: biochemical; conditions: 60 nM cAMP, read-out: rPDE10a2 IC50
Sequence of Rat recombinant PDE10a (rPDE10a) (Q9QYJ6 whole entry): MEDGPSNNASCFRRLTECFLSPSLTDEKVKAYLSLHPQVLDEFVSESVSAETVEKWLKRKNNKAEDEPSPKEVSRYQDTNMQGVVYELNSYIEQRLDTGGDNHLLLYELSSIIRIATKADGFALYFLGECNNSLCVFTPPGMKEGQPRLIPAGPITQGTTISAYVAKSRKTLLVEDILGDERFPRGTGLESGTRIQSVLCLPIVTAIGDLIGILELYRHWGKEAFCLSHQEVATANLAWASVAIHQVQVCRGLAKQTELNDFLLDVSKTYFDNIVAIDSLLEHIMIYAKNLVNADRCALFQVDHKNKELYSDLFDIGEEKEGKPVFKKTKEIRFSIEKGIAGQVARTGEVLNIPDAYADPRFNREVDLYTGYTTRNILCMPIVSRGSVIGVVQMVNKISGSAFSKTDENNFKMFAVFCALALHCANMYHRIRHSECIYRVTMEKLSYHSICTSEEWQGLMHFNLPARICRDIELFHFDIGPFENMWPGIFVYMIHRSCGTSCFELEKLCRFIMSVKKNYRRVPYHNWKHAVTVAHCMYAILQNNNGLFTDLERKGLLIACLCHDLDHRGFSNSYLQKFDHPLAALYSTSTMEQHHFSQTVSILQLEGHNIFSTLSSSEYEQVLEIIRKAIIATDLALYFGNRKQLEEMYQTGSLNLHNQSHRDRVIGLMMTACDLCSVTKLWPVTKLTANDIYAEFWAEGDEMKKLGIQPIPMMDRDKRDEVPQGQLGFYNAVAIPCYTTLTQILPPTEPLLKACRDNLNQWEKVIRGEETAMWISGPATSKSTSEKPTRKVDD
Procedure, shortened: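 Enzyme expressed in Sf9 cells via baculovirus and Ni-sepharose purified; reaction with 3H-cAMP ran 60 min at rt, stopped with PDE SPA beads. Compounds diluted in DMSO at 100-fold final concentration; blanks omitted enzyme.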

[4] = male Sprague Dawley rats, 2 h, perfused or non-perfused brain

Row | SMILES | concentration at 2 h ([1]; brain) | Kp at 2 h [1] | concentration at 2 h ([1]; plasma) | pIC50 [2] | pIC50 [3] | Brain conc 2 h [1, 4] | Ratio Br/Pl Mean 2 h [1, 4] | Plasma conc 2 h ([1]; male Sprague Dawley rats, 2 h, perfused or non-perfused brain study)
1 | C(=C\c1nc2c(N3CCOCC3)ccnn2c1-c1ccc(Sc2nnc[nH]2)nc1)/c1ccc2ccccc2n1 [Cpd 22, (E)-2-(2-(3-(6-(4H-1,2,4-Triazol-3-ylthio)pyridin-3-yl)-8-morpholinoimidazo[1,2-b]pyridazin-2-yl)vinyl)quinoline] | 117 ng/g | 0.17 | 788 ng/mL |  |  |  |  | 
2 | CS(=O)(=O)NC(=O)c1ccc(-c2c(/C=C/c3ccc4ccccc4n3)nc3c(N4CCOCC4)ccnn23)cc1F [compound 134, (E)-2-Fluoro-N-(methylsulfonyl)-4-(8-morpholino-2-(2-(quinolin-2-yl)vinyl)imidazo[1,2-b]pyridazin-3-yl)benzamide] | 0 ng/g | 0 | 926 ng/mL | 8.40 | 8.15 |  |  | 
3 | O=c1[nH]c(-c2ccc(-c3c(/C=C/c4ccc5ccccc5n4)nc4c(N5CCOCC5)ccnn34)cc2)no1 [Cpd 102, (E)-3-(4-(8-Morpholino-2-(2-(quinolin-2-yl)vinyl)imidazo[1,2-b]pyridazin-3-yl)phenyl)-1,2,4-oxadiazol-5(4H)-one] | 0 ng/g | 0 | 155 ng/mL | 8.40 | 8.30 |  |  | 
4 | COc1cc(-c2c(/C=C/c3ccc4ccccc4n3)nc3c(N4CCOCC4)ccnn23)ccc1C(=O)O [compound 67, (E)-2-Methoxy-4-(8-morpholino-2-(2-(quinolin-2-yl)vinyl)imidazo[1,2-b]pyridazin-3-yl)benzoic acid] | 16.9 ng/g | 0.02 | 725 ng/mL | 7.66 | 8.30 |  |  | 
5 | O=C(O)c1cccc(-c2c(/C=C/c3ccc4ccccc4n3)nc3c(N4CCOCC4)ccnn23)c1 [Cpd 124, (E)-3-(8-Morpholino-2-(2-(quinolin-2-yl)vinyl)imidazo[1,2-b]pyridazin-3-yl)benzoic acid] | 0 ng/g | 0 | 86.6 ng/mL | 8.40 | 8.05 |  |  | 
6 | O=C(O)CCc1ccc(-c2c(/C=C/c3ccc4ccccc4n3)nc3c(N4CCOCC4)ccnn23)cc1 [Cpd 128, 3-(4-{8-Morpholin-4-yl-2-[(E)-2-quinolin-2-ylethenyl]imidazo[1,2-b]pyridazin-3-yl}phenyl)propanoic acid] | 0 ng/g | 0 | 314 ng/mL | 8.30 | 8.30 |  |  | 
7 | O=C(O)CNc1ccc(-c2c(C#Cc3ccc4ccccc4n3)nc3c(N4CCOCC4)ccnn23)cn1 [Cpd 24, 2-(5-(8-Morpholino-2-(2-(quinolin-2-yl)ethynyl)imidazo[1,2-b]pyridazin-3-yl)pyridin-2-ylamino)acetic acid trifluoroacetic acid salt] | 1.35 ng/g | 0.2 | 5.37 ng/mL | 9.00 | 9.00 |  |  | 
8 | Oc1nc(O)c(-c2ccc(-c3c(/C=C/c4ccc5ccccc5n4)nc4c(N5CCOCC5)ccnn34)cc2)o1 [Cpd 65, 5-(4-{8-Morpholin-4-yl-2-[(E)-2-quinolin-2-ylethenyl]imidazo[1,2-b]pyridazin-3-yl}phenyl)-1,3-oxazole-2,4-diol] | 14.5 ng/g | 0.01 | 1610 ng/mL | 8.00 | 8.10 |  |  | 
9 | Oc1nc(-c2ccc(-c3c(C#Cc4ccc5ccccc5n4)nc4c(N5CCOCC5)ccnn34)cn2)no1 [Cpd 26, 3-(5-(8-Morpholino-2-(quinolin-2-ylethynyl)imidazo[1,2-b]pyridazin-3-yl)pyridin-2-yl)-1,2,4-oxadiazol-5-ol] | 37.8 ng/g | 0.26 | 150 ng/mL |  |  |  |  | 
10 | O=C(O)CNC(=O)c1ccc(-c2c(CCc3ccc4ccccc4n3)nc3c(N4CCOCC4)ccnn23)cc1 [Cpd 68, 2-(4-(8-Morpholino-2-(2-(quinolin-2-yl)ethyl)imidazo[1,2-b]pyridazin-3-yl)benzamido)acetic acid trifluoroacetic acid salt] |  |  |  | 8.30 | 8.22 |  |  | 
11 | O=C(O)C(F)(F)F.O=C(O)CN1CCC(c2c(C#Cc3ccc4ccccc4n3)nc3c(N4CCOCC4)ccnn23)CC1 [Cpd 25, 2-(4-(8-Morpholino-2-(quinolin-2-ylethynyl)imidazo[1,2-b]pyridazin-3-yl)piperidin-1-yl)acetic acid trifluoroacetic acid salt] |  |  |  |  |  | 0 ng/g | 0 | 5.77 ng/mL
12 | C(=C\c1nc2c(N3CCOCC3)ccnn2c1-c1cccc(-c2nnn[nH]2)c1)/c1ccc2ccccc2n1 [Cpd 105, (E)-4-(3-(3-(1H-Tetrazol-5-yl)phenyl)-2-(2-(quinolin-2-yl)vinyl)imidazo[1,2-b]pyridazin-8-yl)morpholine trifluoroacetic acid salt] |  |  |  | 8.40 | 8.30 |  |  | 

Further lines, results first:

Row | concentration at 2 h ([1]; brain) | Kp at 2 h [1] | concentration at 2 h ([1]; plasma) | pIC50 [2] | pIC50 [3] | Brain conc 2 h [1, 4] | Ratio Br/Pl Mean 2 h [1, 4] | Plasma conc 2 h ([1]; male Sprague Dawley rats, 2 h, perfused or non-perfused brain study) | SMILES
13 | 0 ng/g | 0 | 162 ng/mL | > 9.00 |  |  |  |  | O=C(O)c1ccc(-c2c([C@H]3C[C@H](c4ccc5ccccc5n4)C3)nc3c(N4CCOCC4)ccnn23)cc1 [compound 164, 4-(8-Morpholino-2-((1r,3r)-3-(quinolin-2-yl)cyclobutyl)imidazo[1,2-b]pyridazin-3-yl)benzoic acid trifluoroacetic acid salt]
14 | 0 ng/g | 0 | 205 ng/mL | 9.00 | 9.00 |  |  |  | CS(=O)(=O)NC(=O)c1ccc(-c2c(C#Cc3ccc4ccccc4n3)nc3c(N4CCOCC4)ccnn23)cc1 [compound 83, N-(Methylsulfonyl)-4-(8-morpholino-2-(quinolin-2-ylethynyl)imidazo[1,2-b]pyridazin-3-yl)benzamide]
15 | 30.1 ng/g | 0.02 | 1200 ng/mL | 8.70 |  |  |  |  | O=C(O)C1CCN(c2ccc(-c3c([C@H]4C[C@H](c5ccc6ccccc6n5)C4)nc4c(N5CCOCC5)ccnn34)cc2)CC1 [compound 168, 1-(4-(8-Morpholino-2-((1r,3r)-3-(quinolin-2-yl)cyclobutyl)imidazo[1,2-b]pyridazin-3-yl)phenyl)piperidine-4-carboxylic acid]
16 | 0 ng/g | 0 | 199 ng/mL | 8.52 | 8.52 |  |  |  | O=C(O)c1ccc(-c2c(/C=C/c3ccc4ccccc4n3)nc3c(N4CCOCC4)ccnn23)cc1F [compound 103, (E)-2-Fluoro-4-(8-morpholino-2-(2-(quinolin-2-yl)vinyl)imidazo[1,2-b]pyridazin-3-yl)benzoic acid]
17 | 0 ng/g | 0 | 38 ng/mL | 9.00 | 9.00 |  |  |  | O=C(O)c1ccc(-c2c(CCc3ccc4ccccc4n3)nc3c(N4CCOCC4)ccnn23)cc1 [compound 41, 4-(8-Morpholino-2-(2-(quinolin-2-yl)ethyl)imidazo[1,2-b]pyridazin-3-yl)benzoic acid]
18 | 0.95 ng/g | 0.01 | 136 ng/mL | 9.00 | 9.00 |  |  |  | CS(=O)(=O)NC(=O)c1ccc(-c2c(C#Cc3ccc4ccccc4n3)nc3c(N4CCOCC4)ccnn23)cn1 [Cpd 28, N-(Methylsulfonyl)-5-(8-morpholino-2-(quinolin-2-ylethynyl)imidazo[1,2-b]pyridazin-3-yl)picolinamide]
